Reference: publication PMC6378217, “The lysyl oxidase like 2/3 enzymatic inhibitor, PXS‐5153A, reduces crosslinks and ameliorates fibrosis” (Journal of Cellular and Molecular Medicine, 2018)

Experiments:
[1] = molecular target: Nicotinic Acetylcholine α1, Bungarotoxin (Homo sapiens, UniProt P02708+P07510+Q07001); assay: Eurofins Hit Profiling Screen; assay type: binding; settings: 10 μmol/L
[2] = molecular target: Histamine H1 (Homo sapiens, UniProt P35367); assay: Eurofins Hit Profiling Screen; assay type: binding; settings: 10 μmol/L
Chain of Histamine H1 (P35367 whole entry): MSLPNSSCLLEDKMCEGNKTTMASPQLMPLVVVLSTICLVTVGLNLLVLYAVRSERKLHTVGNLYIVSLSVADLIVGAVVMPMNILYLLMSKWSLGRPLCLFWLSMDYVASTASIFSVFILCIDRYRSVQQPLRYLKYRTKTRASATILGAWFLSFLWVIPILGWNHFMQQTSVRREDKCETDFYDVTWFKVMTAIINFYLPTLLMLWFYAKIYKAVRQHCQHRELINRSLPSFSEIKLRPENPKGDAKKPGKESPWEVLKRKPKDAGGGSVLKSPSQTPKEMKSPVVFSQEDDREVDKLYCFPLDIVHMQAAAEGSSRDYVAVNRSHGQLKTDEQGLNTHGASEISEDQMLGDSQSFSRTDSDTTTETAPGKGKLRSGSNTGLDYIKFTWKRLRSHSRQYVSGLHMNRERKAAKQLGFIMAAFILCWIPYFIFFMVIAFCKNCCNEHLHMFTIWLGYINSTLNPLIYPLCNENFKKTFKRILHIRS

[3] = system: LOXL2; assay: LOXL2 enzymatic activity across all mammalian species tested; assay type: biochemical
Experimental: The measurement of the enzymatic activity of all lysyl oxidase family members was based on the detection of hydrogen peroxide with an Amplex‐Red oxidation assay, as described in Zhou et al26 Recombinant human semicarbazide sensitive amine oxidase (SSAO/VAP1), diamine oxidase (DAO) and monoamine oxidases A and B (MAO‐A and MAO‐B) assays were performed as previously described.27 For detailed enzymatic procedures, see supporting information.
The measurement of the enzymatic activity of all lysyl oxidase family members was based on the detection of hydrogen peroxide with an Amplex-Red oxidation assay, as described in Zhou et al.[1]; miniaturised in 384 well format, with the appropriate combination of substrate and assay buffer for each individual enzyme. After a 30 minute pre-incubation of the enzyme at 37 °C with the test compound (or with different incubation times for the time-dependency assay), one volume of reaction mixture containing 120 μM Amplex Red (AR) (Life Technologies), 1.5 U/mL horseradish peroxidase (HRP) (Sigma-Aldrich) and the specific substrate was added to each sample. The relative fluorescence units (RFU) were then measured every 2.5 minutes for 30 minutes at 37°C, excitation 565 nm and emission 590, on a BMG Clariostar Microplate Reader. […]

[4] = system: GABAA, Flunitrazepam, Central; assay: Eurofins Hit Profiling Screen; assay type: binding; settings: 10 μmol/L
[5] = molecular target: Muscarinic M3 (Homo sapiens, UniProt P20309); assay: Eurofins Hit Profiling Screen; assay type: binding; settings: 10 μmol/L
Chain of Muscarinic M3 (P20309 whole entry): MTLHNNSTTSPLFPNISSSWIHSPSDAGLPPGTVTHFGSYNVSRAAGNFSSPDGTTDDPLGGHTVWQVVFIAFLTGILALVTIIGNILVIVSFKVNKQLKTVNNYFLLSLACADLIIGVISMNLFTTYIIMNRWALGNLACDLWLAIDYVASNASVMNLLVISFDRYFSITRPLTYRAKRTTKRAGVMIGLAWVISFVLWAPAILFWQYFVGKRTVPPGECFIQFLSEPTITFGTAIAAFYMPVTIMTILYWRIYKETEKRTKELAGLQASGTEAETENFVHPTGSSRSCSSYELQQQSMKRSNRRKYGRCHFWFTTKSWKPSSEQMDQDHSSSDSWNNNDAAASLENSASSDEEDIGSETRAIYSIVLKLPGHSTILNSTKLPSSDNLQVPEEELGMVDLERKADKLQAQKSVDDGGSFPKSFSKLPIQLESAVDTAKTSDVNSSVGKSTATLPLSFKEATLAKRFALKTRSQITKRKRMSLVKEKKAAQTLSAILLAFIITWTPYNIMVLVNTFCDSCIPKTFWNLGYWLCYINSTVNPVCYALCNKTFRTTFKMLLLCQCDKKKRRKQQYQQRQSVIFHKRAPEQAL

[6] = molecular target: Serotonin (5-Hydroxytryptamine) 5-HT2B (Homo sapiens, UniProt P41595); assay: Eurofins Hit Profiling Screen; assay type: binding; settings: 10 μmol/L
Chain of Serotonin (5-Hydroxytryptamine) 5-HT2B (P41595 whole entry): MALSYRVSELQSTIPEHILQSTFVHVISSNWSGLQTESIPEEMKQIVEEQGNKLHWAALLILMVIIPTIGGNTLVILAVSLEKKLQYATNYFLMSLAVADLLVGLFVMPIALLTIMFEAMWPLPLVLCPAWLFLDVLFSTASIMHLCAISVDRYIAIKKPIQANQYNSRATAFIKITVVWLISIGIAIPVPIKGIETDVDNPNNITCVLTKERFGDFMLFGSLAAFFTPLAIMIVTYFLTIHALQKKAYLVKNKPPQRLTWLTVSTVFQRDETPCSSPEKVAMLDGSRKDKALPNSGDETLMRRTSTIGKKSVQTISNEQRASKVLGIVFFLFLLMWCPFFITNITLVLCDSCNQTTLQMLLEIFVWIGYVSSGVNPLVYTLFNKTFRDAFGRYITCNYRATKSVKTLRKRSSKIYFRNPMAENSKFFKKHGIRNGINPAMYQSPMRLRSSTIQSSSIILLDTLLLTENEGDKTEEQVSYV

[7] = Pharmacokinetic study in mice; assay type: in vivo, C57/BL6 mice; settings: mouse
Experimental: Studies were performed by Pharmalegacy (Shanghai, China), GVK (Hyderabad, India) and Sundia, (Shanghai, China), with local ethics approval. Wistar rats were administered PXS‐5153A orally at 10 mg/kg or intravenously at 5 mg/kg, while C57/BL6 mice received PXS‐5153A orally or intravenously at 5 mg/kg. Plasma was analysed for PXS‐5153A by high‐performance liquid chromatography‐mass spectrometry/mass spectrometry (LCMS/MS).

Chain of Nicotinic Acetylcholine α1, Bungarotoxin (Q07001 22-517): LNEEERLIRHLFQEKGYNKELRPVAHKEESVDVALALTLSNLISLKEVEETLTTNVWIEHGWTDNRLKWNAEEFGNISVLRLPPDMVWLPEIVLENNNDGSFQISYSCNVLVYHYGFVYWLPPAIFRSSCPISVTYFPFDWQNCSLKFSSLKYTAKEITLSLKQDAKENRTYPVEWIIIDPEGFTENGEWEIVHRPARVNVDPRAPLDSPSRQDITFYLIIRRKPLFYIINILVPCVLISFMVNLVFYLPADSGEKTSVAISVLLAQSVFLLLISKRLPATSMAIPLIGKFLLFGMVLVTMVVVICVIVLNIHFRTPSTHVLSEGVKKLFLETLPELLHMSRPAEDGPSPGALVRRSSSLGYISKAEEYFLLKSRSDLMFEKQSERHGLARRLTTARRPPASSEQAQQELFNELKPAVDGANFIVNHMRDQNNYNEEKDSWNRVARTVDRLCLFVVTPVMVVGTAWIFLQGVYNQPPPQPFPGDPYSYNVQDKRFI
Chain of Nicotinic Acetylcholine α1, Bungarotoxin (P02708 21-457): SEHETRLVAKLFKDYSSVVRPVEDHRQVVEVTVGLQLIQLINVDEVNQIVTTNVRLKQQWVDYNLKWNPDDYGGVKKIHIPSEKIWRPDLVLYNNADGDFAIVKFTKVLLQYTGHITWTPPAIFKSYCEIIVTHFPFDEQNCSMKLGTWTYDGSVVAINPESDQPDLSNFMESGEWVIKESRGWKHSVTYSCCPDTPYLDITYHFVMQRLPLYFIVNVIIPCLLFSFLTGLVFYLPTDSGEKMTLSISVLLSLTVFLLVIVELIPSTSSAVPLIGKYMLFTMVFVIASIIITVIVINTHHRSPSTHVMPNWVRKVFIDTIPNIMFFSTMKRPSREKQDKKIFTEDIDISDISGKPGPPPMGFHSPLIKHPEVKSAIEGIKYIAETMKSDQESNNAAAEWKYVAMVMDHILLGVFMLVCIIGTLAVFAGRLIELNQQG
Chain of Nicotinic Acetylcholine α1, Bungarotoxin (P07510 23-517): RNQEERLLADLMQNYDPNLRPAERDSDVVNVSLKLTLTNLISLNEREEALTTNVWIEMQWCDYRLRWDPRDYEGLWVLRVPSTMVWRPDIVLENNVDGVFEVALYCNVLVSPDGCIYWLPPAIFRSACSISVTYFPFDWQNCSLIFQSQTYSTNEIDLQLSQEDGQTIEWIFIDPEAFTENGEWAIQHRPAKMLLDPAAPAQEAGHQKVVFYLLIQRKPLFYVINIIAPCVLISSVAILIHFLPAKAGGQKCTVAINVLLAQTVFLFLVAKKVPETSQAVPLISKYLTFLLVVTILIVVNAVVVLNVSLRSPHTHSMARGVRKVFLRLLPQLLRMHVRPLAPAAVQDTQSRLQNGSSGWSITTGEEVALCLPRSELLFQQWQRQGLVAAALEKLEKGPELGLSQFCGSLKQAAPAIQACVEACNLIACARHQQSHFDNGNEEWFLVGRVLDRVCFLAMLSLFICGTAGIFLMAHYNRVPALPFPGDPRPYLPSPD
Chain of Nicotinic Acetylcholine α1, Bungarotoxin (P11230 24-501, further chain): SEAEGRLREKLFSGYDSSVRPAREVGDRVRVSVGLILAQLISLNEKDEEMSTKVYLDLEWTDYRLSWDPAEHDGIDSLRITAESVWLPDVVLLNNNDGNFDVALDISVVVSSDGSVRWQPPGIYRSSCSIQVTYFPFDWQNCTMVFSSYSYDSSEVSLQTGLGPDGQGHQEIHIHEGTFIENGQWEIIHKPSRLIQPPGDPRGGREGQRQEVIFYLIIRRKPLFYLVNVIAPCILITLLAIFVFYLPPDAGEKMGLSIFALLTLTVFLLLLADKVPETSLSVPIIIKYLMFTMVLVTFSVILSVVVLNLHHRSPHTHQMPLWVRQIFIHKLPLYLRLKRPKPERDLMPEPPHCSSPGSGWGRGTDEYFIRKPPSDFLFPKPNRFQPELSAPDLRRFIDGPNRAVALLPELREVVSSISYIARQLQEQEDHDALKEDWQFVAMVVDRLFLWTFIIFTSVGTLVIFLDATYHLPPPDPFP

For Cc1c(-c2cccc(S(=O)(=O)N(C)C)c2)c2ncccc2n1C/C(F)=C/CN.Cl.Cl [PXS-5153A], the “% inhibition” value [1] was 2%, the “% inhibition” value [2] was 23% and the IC50 [3] was under 0.04 µM. The “% inhibition” value [4] was 26%, the “% inhibition” value [5] was 9% and the “% inhibition” value [6] was 33%. The “Apparent half-life, t1/2” value ([7]; intravenous 5 mg/kg) was 1.6 h, the “Clearance CL” value ([7]; intravenous 5 mg/kg) was 40.4 L/h/kg and the “Time of maximal concentration Tmax” value ([7]; intravenous 5 mg/kg) was 0.08 h. For the same molecule, the “Apparent concentration at curve maximum Cmax” value ([7]; oral 5 mg/kg) was 0.113 µg/mL, the “Clearance CL” value ([7]; oral 5 mg/kg) was 35.6 L/h/kg and the “Time of maximal concentration Tmax” value ([7]; oral 5 mg/kg) was 1 h. The Bioavailability ([7]; oral 5 mg/kg (i.v. 5 mg/kg)) was 40%.
